Reference: US20260013501A1, “HERBICIDAL DERIVATIVES” (SYNGENTA CROP PROTECTION AG, priority 2022, published 2026)

What was measured:
Assay type in all cases: in vivo
Zea mays (ZEAMX) [1] = assay: Post-emergence Test (Table B2), ZEAMX; design: key: 5-point damage scale: 5=81-100%, 4=61-80%, 3=41-60%, 2=21-40%, 1=0-20%; details: evaluated after 13 days
Outline: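 Score: % damage at 13 d on a 5-point scale (5=81-100%; 4=61-80%; 3=41-60%; 2=21-40%; 1=0-20%). Seeds sown in pots, sprayed with test article in acetone/water 50:50 + 0.5% Tween 20; rate in g/ha. Glasshouse 24/16 °C, 14 h light, 65% RH, watered twice daily.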

[2] = test system: Echinochloa crus-galli (ECHCG); assay: Post-emergence Test (Table B2), ECHCG; design: key: 5-point damage scale: 5=81-100%, 4=61-80%, 3=41-60%, 2=21-40%, 1=0-20%; details: evaluated after 13 days
Experimental: (§1) Seeds of a variety of test species are sown in standard soil in pots (Ipomoea hederacea (IPOHE), Zea mays (ZEAMX), Echinochloa crus-galli (ECHCG), Amaranthus palmeri (AMAPA), (Amaranthus retoflexus (AMARE), and (Setaria faberi (SETFA)). After 8 days cultivation under controlled conditions in a glasshouse (at 24° C./16° C., day/night; 14 hours light; 65% humidity), the plants are sprayed with an aqueous spray solution derived from the formulation of the technical active ingredient in acetone/water (50:50) solution containing 0.5% Tween 20 (polyoxyethelyene sorbitan monolaurate, CAS RN 9005-64-5). Rate of application is shown in g/ha in the tables below. The test plants are then grown in a glasshouse under controlled conditions in a glasshouse (at 24° C./16° C., day/night; 14 hours light; 65% humidity) and watered twice daily. After 13 days the test is evaluated for the percentage damage caused to the plant. The biological activities are shown in the following table on a five-point scale (5=81-100%; 4=61-80%; 3=41-60%; 2=21-40%; 1=0-20%; -=not tested).

[3] = test system: Amaranthus palmeri (AMAPA); assay: Post-emergence Test (Table B2), AMAPA; design: key: five-point scale: 5=81-100%, 4=61-80%, 3=41-60%, 2=21-40%, 1=0-20% damage; details: evaluated after 13 days
Experimental: as §1

[4] = test system: Amaranthus retoflexus (AMARE); assay: Post-emergence Test (Table B2), AMARE; design: key: five-point scale: 5=81-100%, 4=61-80%, 3=41-60%, 2=21-40%, 1=0-20% damage; details: evaluated after 13 days
Experimental: as §1

Setaria faberi (SETFA) = assay: Post-emergence Test (Table B2), SETFA; design: key: five-point scale: 5=81-100%, 4=61-80%, 3=41-60%, 2=21-40%, 1=0-20% damage; details: evaluated after 13 days
Experimental: as §1

[5] = test system: Ipomoea hederacea (IPOHE); assay: Post-emergence Test (Table B2), IPOHE; design: key: five-point scale: 5=81-100%, 4=61-80%, 3=41-60%, 2=21-40%, 1=0-20% damage; details: rate 1000 g/Ha, evaluated after 13 days
Experimental: as §1

[6] = test system: Ipomoea hederacea (IPOHE); assay: Pre-emergence Test (Table B1), IPOHE; details: evaluated after 13 days
[7] = test system: Echinochloa crus-galli (ECHCG); assay: Pre-emergence Test (Table B1), ECHCG; details: evaluated after 13 days
Zea mays (ZEAMX) [8] = assay: Pre-emergence Test (Table B1), ZEAMX; details: evaluated after 13 days
[9] = test system: Amaranthus palmeri (AMAPA); assay: Pre-emergence Test (Table B1), AMAPA; details: Rate 250 g/Ha, evaluated after 13 days
[10] = test system: Amaranthus retoflexus (AMARE); assay: Pre-emergence Test (Table B1), AMARE; details: Rate 250 g/Ha, evaluated after 13 days

CCn1c(Cc2ccc(C#N)c(=O)[nH]2)cc(=O)c(C(=O)O)c1-c1ccc(Cl)c(Cl)c1 [Compound 114, 6-[(5-cyano-6-oxo-1H-pyridin-2-yl)methyl]-2-(3,4-dichlorophenyl)-1-ethyl-4-oxo-pyridine-3-carboxylic acid]
0: percentage damage caused to the plant, ZEAMX (Zea mays (ZEAMX) [1]; rate 250 g/Ha) | percentage damage caused to the plant, ECHCG ([2]; rate 250 g/Ha) | percentage damage caused to the plant, AMAPA ([3]; rate 250 g/Ha) | percentage damage caused to the plant, AMARE ([4]; rate 250 g/Ha) | percentage damage caused to the plant, SETFA (Setaria faberi (SETFA); rate 250 g/Ha)

CCn1c(Cc2ccc(OC)c(OC)c2)cc(=O)c(C(=O)O)c1-c1ccc(Cl)c(Cl)c1 [Compound 34, 2-(3,4-dichlorophenyl)-6-[(3,4-dimethoxyphenyl)meth-yl]-1-ethyl-4-oxo-pyridine-3-carboxylic acid]
0: percentage damage caused to the plant, IPOHE [5] | percentage damage caused to the plant, ZEAMX (Zea mays (ZEAMX) [1]; rate 1000 g/Ha) | percentage damage caused to the plant, ECHCG ([2]; rate 1000 g/Ha)

CCn1c(Cc2cc(O)cc(F)n2)cc(=O)c(C(=O)O)c1-c1ccc(Cl)c(Cl)c1 [Compound 104, 2-(3,4-dichlorophenyl)-1-ethyl-6-[(6-fluoro-4-hydroxy-2-pyridyl)methyl]-4-oxo-pyridine-3-carboxylic acid]
0: percentage damage caused to the plant, IPOHE [5]

CCn1c(Cc2cccc(C(C)C)c2)cc(=O)c(C(=O)O)c1-c1ccc(Cl)c(Cl)c1 [Compound 23, 2-(3,4-dichlorophenyl)-1-ethyl-6-[(3-isopropylphenyl)methyl]-4-oxo-pyridine-3-carboxylic acid]
0: percentage damage caused to the plant, IPOHE [5] | percentage damage caused to the plant, ZEAMX (Zea mays (ZEAMX) [1]; rate 1000 g/Ha) | percentage damage caused to the plant, ECHCG ([2]; rate 1000 g/Ha)

CCn1c(Cc2ccccc2Cl)cc(=O)c(C(=O)O)c1-c1ccc(Cl)c(Cl)c1 [Compound 16, 6-[(2-chlorophenyl)methyl]-2-(3,4-dichlorophenyl)-1-ethyl-4-oxo-pyridine-3-carboxylic acid]
0: Pre-emergence Test, percentage damage caused to the plant (five-point scale), IPOHE ([6]; Rate 1000 g/Ha) | Pre-emergence Test, percentage damage caused to the plant (five-point scale), ECHCG ([7]; Rate 1000 g/Ha) | percentage damage caused to the plant, ZEAMX (Zea mays (ZEAMX) [1]; rate 1000 g/Ha) | percentage damage caused to the plant, ECHCG ([2]; rate 1000 g/Ha) | percentage damage caused to the plant, AMAPA ([3]; rate 1000 g/Ha) | percentage damage caused to the plant, AMARE ([4]; rate 1000 g/Ha) | percentage damage caused to the plant, SETFA (Setaria faberi (SETFA); rate 1000 g/Ha)

CCn1c(Cc2ccc(C)cc2F)cc(=O)c(C(=O)O)c1-c1ccc(Cl)c(Cl)c1 [Compound 67, 2-(3,4-dichlorophenyl)-1-3ethyl-6-[(2-fluoro-4-methyl-phenyl)methyl]-4-oxo-pyridine-3-3-carboxylic acid]
0: Pre-emergence Test, percentage damage caused to the plant (five-point scale), IPOHE ([6]; Rate 250 g/Ha) | Pre-emergence Test, percentage damage caused to the plant (five-point scale), ZEAMX (Zea mays (ZEAMX) [8]; Rate 250 g/Ha) | Pre-emergence Test, percentage damage caused to the plant (five-point scale), AMAPA [9] | Pre-emergence Test, percentage damage caused to the plant (five-point scale), AMARE [10] | percentage damage caused to the plant, ECHCG ([2]; rate 250 g/Ha) | percentage damage caused to the plant, AMAPA ([3]; rate 250 g/Ha) | percentage damage caused to the plant, SETFA (Setaria faberi (SETFA); rate 250 g/Ha)

CCn1c(Cc2cccc(OC)c2)cc(=O)c(C(=O)O)c1-c1ccc(Cl)c(Cl)c1 [Compound 9, 2-(3,4-dichlorophenyl)-1-ethyl-6-[(3-methoxyphenyl)methyl]-4-oxo-pyridine-3-carboxylic acid]
0: Pre-emergence Test, percentage damage caused to the plant (five-point scale), IPOHE ([6]; Rate 250 g/Ha) | Pre-emergence Test, percentage damage caused to the plant (five-point scale), ZEAMX (Zea mays (ZEAMX) [8]; Rate 250 g/Ha) | Pre-emergence Test, percentage damage caused to the plant (five-point scale), ECHCG ([7]; Rate 250 g/Ha) | Pre-emergence Test, percentage damage caused to the plant (five-point scale), AMARE [10] | percentage damage caused to the plant, ZEAMX (Zea mays (ZEAMX) [1]; rate 250 g/Ha) | percentage damage caused to the plant, ECHCG ([2]; rate 250 g/Ha) | percentage damage caused to the plant, AMARE ([4]; rate 250 g/Ha) | percentage damage caused to the plant, SETFA (Setaria faberi (SETFA); rate 250 g/Ha)

CCn1c(Cc2cccc(OC)c2OC)cc(=O)c(C(=O)O)c1-c1ccc(Cl)c(Cl)c1 [Compound 38, 2-(3,4-dichlorophenyl)-6-[(2,3-dimethoxyphenyl)meth-yl]-1-ethyl-4-oxo-pyridine-3-carboxylic acid]
0: percentage damage caused to the plant, IPOHE [5] | percentage damage caused to the plant, ZEAMX (Zea mays (ZEAMX) [1]; rate 1000 g/Ha) | percentage damage caused to the plant, ECHCG ([2]; rate 1000 g/Ha)

CCn1c(Cc2cccc(SC)c2)cc(=O)c(C(=O)O)c1-c1ccc(Cl)c(Cl)c1 [Compound 31, 2-(3,4-dichlorophenyl)-1-ethyl-6-[(3-methylsulfanylphenyl)methyl]-4-oxo-pyridine-3-carboxylic acid]
0: percentage damage caused to the plant, IPOHE [5] | percentage damage caused to the plant, ZEAMX (Zea mays (ZEAMX) [1]; rate 1000 g/Ha) | percentage damage caused to the plant, ECHCG ([2]; rate 1000 g/Ha)

CCOc1cccc(Cc2cc(=O)c(C(=O)O)c(-c3ccc(Cl)c(Cl)c3)n2CC)n1 [Compound 127, 2-(3,4-dichlorophenyl)-6-[(6-ethoxy-2-pyridyl)methyl]-1-ethyl-4-oxo-pyridine-3-carboxylicacid]
0: Pre-emergence Test, percentage damage caused to the plant (five-point scale), IPOHE ([6]; Rate 250 g/Ha) | Pre-emergence Test, percentage damage caused to the plant (five-point scale), ZEAMX (Zea mays (ZEAMX) [8]; Rate 250 g/Ha) | Pre-emergence Test, percentage damage caused to the plant (five-point scale), ECHCG ([7]; Rate 250 g/Ha) | Pre-emergence Test, percentage damage caused to the plant (five-point scale), AMAPA [9] | Pre-emergence Test, percentage damage caused to the plant (five-point scale), AMARE [10] | percentage damage caused to the plant, ZEAMX (Zea mays (ZEAMX) [1]; rate 250 g/Ha) | percentage damage caused to the plant, ECHCG ([2]; rate 250 g/Ha) | percentage damage caused to the plant, SETFA (Setaria faberi (SETFA); rate 250 g/Ha)

CCn1c(Cc2cccc(C(F)(F)F)c2)cc(=O)c(C(=O)O)c1-c1ccc(Cl)c(Cl)c1 [Compound 8, 2-(3,4-dichlorophenyl)-1-ethyl-4-oxo-6-[[3-(trifluoromethyl)phenyl]methyl]pyridine-3-carboxylic acid]
0: percentage damage caused to the plant, ZEAMX (Zea mays (ZEAMX) [1]; rate 250 g/Ha) | percentage damage caused to the plant, ECHCG ([2]; rate 250 g/Ha) | percentage damage caused to the plant, AMAPA ([3]; rate 250 g/Ha) | percentage damage caused to the plant, AMARE ([4]; rate 250 g/Ha) | percentage damage caused to the plant, SETFA (Setaria faberi (SETFA); rate 250 g/Ha)

CCn1c(Cc2ccccc2OC)cc(=O)c(C(=O)O)c1-c1ccc(Cl)c(Cl)c1 [Compound 24, 2-(3,4-dichlorophenyl)-1-ethyl-6-[(2-methoxyphenyl)methyl]-4-oxo-pyridine-3-carboxylic acid]
0: percentage damage caused to the plant, IPOHE [5] | percentage damage caused to the plant, ZEAMX (Zea mays (ZEAMX) [1]; rate 1000 g/Ha) | percentage damage caused to the plant, ECHCG ([2]; rate 1000 g/Ha)

CCn1c(Cc2ccc(C3CC3)cc2)cc(=O)c(C(=O)O)c1-c1ccc(Cl)c(Cl)c1 [Compound 25, 6-[(4-cyclopropylphenyl)meth-yl]-2-(3,4-dichlorophenyl)-1-ethyl-4-oxo-pyridine-3-carboxylic acid]
0: percentage damage caused to the plant, IPOHE [5] | percentage damage caused to the plant, ECHCG ([2]; rate 1000 g/Ha)

CCn1c(Cc2ccc(OC)cc2F)cc(=O)c(C(=O)O)c1-c1ccc(Cl)c(Cl)c1 [Compound 89, 2-(3,4-dichlorophenyl)-1-ethyl-6-[(2-fluoro-4-methoxy-phenyl)methyl]-4-oxo-pyridine-3-carboxylic acid]
0: Pre-emergence Test, percentage damage caused to the plant (five-point scale), IPOHE ([6]; Rate 250 g/Ha) | Pre-emergence Test, percentage damage caused to the plant (five-point scale), ZEAMX (Zea mays (ZEAMX) [8]; Rate 250 g/Ha) | percentage damage caused to the plant, ECHCG ([2]; rate 250 g/Ha) | percentage damage caused to the plant, AMAPA ([3]; rate 250 g/Ha) | percentage damage caused to the plant, AMARE ([4]; rate 250 g/Ha) | percentage damage caused to the plant, SETFA (Setaria faberi (SETFA); rate 250 g/Ha)

CCn1c(Cc2ccc(F)c(C(=O)O)n2)cc(=O)c(C(=O)O)c1-c1ccc(Cl)c(Cl)c1 [Compound 98, 6-[(6-carboxy-5-fluoro-2-pyridyl)methyl]-2-(3,4-dichlorophenyl)-1-ehtyl-4-oxo-pyridine-3-carboxylic acid]
0: Pre-emergence Test, percentage damage caused to the plant (five-point scale), ZEAMX (Zea mays (ZEAMX) [8]; Rate 1000 g/Ha) | percentage damage caused to the plant, IPOHE [5] | percentage damage caused to the plant, ZEAMX (Zea mays (ZEAMX) [1]; rate 1000 g/Ha)
